Activity calls are given as the source filed them.
Experiments:
HEK293 = experiment: EBV LMP1 TES2 canonical NF-kB signalling blockers – cell-based, HEK293, luciferase, cherry-pick, dose response (AID 588343); type: functional; details: Homo sapiens
[1] = blockers of bursicon-stimulated LGR2 cAMP reporter – cell-based, HEK293, CRE-luciferase reporter, cherry pick, set 2, dose response (AID 743343); type: functional;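 note: transfected cells were stimulated with diluted bursicon conditioned medium after compound addition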
[2] = blockade of melanocortin 4 receptor signaling – cell-based, plate reader, cherry pick, counter-screen for LGR2 antagonist project, dose response (AID 743444); type: functional;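 note: transfected HEK 293 cells stimulated with alpha-MSH peptide; potency of inhibitors of the alpha-MSH evoked signal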
Streptokinase A = target: T1, Streptokinase A (Streptococcus pyogenes serotype M1, UniProt P10520); experiment: viability-normalized secreted streptokinase activity reduction – plasminogen activation absorbance, OD405, dose response (AID 1914); type: functional, Streptococcus pyogenes M1 GAS;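 note: secreted streptokinase activity via plasminogen activation per viability signal from cell pellet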
T1 sequence (P10520 whole entry): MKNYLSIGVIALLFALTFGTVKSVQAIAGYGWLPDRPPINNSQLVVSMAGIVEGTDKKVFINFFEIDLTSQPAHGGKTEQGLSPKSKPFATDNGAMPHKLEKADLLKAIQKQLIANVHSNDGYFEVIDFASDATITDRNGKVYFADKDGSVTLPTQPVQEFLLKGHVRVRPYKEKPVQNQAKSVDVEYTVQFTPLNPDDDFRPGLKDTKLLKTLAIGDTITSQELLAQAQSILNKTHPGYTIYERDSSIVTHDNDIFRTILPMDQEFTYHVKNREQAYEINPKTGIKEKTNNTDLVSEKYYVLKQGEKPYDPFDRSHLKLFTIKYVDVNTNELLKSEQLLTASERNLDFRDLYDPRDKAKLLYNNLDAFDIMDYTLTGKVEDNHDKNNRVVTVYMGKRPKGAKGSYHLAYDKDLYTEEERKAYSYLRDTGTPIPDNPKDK

[3] = HepG2 cell cytotoxicity, dose response, cytotoxicity control for non-replicating M. tuberculosis project (AID 489018); type: functional; details: Mycobacterium tuberculosis
Cytochrome P450 2D6 = Cytochrome P450 2D6 (Homo sapiens, UniProt P10635);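 note: CYP2D6 member of a cytochrome P450 panel assay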
Sequence of Cytochrome P450 2D6 (P10635 whole entry): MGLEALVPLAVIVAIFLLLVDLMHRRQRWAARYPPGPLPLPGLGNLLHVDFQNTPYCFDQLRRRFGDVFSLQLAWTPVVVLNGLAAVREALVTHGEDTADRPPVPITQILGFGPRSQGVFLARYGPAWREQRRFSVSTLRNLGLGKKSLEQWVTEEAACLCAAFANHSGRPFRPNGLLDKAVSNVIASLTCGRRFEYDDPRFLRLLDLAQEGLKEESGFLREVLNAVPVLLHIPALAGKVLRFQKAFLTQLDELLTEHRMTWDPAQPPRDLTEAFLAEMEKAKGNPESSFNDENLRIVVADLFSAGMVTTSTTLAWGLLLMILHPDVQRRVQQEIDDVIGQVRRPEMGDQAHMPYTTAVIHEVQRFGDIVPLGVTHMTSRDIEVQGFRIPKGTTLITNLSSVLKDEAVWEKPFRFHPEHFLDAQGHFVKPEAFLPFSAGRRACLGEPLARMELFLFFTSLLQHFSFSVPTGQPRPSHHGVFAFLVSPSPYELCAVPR

cells [4] = type: functional
[5] = test system: Streptococcus sp. 'group A'; experiment: Streptococcus pyogenes SK(-)GAS viability under kanamycin – luminescence, BacTiterGlo, confirmation, counter-screen for streptokinase expression inhibitor project, dose response (AID 1900); type: functional, organism-based
[6] = microbe, parasite or virus in culture; type: functional; details: Mycobacterium tuberculosis
[7] = THP-1 cell cytotoxicity, dose response, cytotoxicity control for non-replicating M. tuberculosis project (AID 489025); type: functional
Cytochrome P450 3A4 [8] = target: T2, Cytochrome P450 3A4 (Homo sapiens, UniProt P08684)
T2 sequence (P08684 whole entry): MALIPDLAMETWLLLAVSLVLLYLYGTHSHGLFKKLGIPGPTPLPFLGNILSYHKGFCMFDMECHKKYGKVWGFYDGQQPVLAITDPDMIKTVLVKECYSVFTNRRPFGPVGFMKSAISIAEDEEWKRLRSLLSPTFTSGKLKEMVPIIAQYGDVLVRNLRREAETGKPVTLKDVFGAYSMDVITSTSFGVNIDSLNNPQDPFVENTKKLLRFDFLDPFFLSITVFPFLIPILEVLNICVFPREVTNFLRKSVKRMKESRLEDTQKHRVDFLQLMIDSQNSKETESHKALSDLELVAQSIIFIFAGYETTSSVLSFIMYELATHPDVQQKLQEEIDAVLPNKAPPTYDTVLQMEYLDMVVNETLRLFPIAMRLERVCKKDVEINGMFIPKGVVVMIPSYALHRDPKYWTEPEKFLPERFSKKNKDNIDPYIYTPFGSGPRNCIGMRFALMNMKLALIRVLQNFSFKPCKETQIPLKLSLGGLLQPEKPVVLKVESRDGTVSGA

Streptococcus = experiment: GAS UMAA2166 growth inhibition – luminescence, BacTiterGlo, counter-screen for streptokinase expression inhibitor project, dose response (AID 1915); type: functional, organism-based;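 note: potency for reduction of bacterial viability or growth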
[9] = Vero E6 cell cytotoxicity, dose response, cytotoxicity control for non-replicating M. tuberculosis project, secondary assay (AID 492998); type: functional, VeroE6; details: Vero C1008
[10] = target: Voltage-dependent T-type calcium channel subunit alpha-1H (Homo sapiens, UniProt O95180); type: functional;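 note: channel activity triggered by adding a high calcium stimulation buffer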
Sequence of Voltage-dependent T-type calcium channel subunit alpha-1H (O95180 whole entry): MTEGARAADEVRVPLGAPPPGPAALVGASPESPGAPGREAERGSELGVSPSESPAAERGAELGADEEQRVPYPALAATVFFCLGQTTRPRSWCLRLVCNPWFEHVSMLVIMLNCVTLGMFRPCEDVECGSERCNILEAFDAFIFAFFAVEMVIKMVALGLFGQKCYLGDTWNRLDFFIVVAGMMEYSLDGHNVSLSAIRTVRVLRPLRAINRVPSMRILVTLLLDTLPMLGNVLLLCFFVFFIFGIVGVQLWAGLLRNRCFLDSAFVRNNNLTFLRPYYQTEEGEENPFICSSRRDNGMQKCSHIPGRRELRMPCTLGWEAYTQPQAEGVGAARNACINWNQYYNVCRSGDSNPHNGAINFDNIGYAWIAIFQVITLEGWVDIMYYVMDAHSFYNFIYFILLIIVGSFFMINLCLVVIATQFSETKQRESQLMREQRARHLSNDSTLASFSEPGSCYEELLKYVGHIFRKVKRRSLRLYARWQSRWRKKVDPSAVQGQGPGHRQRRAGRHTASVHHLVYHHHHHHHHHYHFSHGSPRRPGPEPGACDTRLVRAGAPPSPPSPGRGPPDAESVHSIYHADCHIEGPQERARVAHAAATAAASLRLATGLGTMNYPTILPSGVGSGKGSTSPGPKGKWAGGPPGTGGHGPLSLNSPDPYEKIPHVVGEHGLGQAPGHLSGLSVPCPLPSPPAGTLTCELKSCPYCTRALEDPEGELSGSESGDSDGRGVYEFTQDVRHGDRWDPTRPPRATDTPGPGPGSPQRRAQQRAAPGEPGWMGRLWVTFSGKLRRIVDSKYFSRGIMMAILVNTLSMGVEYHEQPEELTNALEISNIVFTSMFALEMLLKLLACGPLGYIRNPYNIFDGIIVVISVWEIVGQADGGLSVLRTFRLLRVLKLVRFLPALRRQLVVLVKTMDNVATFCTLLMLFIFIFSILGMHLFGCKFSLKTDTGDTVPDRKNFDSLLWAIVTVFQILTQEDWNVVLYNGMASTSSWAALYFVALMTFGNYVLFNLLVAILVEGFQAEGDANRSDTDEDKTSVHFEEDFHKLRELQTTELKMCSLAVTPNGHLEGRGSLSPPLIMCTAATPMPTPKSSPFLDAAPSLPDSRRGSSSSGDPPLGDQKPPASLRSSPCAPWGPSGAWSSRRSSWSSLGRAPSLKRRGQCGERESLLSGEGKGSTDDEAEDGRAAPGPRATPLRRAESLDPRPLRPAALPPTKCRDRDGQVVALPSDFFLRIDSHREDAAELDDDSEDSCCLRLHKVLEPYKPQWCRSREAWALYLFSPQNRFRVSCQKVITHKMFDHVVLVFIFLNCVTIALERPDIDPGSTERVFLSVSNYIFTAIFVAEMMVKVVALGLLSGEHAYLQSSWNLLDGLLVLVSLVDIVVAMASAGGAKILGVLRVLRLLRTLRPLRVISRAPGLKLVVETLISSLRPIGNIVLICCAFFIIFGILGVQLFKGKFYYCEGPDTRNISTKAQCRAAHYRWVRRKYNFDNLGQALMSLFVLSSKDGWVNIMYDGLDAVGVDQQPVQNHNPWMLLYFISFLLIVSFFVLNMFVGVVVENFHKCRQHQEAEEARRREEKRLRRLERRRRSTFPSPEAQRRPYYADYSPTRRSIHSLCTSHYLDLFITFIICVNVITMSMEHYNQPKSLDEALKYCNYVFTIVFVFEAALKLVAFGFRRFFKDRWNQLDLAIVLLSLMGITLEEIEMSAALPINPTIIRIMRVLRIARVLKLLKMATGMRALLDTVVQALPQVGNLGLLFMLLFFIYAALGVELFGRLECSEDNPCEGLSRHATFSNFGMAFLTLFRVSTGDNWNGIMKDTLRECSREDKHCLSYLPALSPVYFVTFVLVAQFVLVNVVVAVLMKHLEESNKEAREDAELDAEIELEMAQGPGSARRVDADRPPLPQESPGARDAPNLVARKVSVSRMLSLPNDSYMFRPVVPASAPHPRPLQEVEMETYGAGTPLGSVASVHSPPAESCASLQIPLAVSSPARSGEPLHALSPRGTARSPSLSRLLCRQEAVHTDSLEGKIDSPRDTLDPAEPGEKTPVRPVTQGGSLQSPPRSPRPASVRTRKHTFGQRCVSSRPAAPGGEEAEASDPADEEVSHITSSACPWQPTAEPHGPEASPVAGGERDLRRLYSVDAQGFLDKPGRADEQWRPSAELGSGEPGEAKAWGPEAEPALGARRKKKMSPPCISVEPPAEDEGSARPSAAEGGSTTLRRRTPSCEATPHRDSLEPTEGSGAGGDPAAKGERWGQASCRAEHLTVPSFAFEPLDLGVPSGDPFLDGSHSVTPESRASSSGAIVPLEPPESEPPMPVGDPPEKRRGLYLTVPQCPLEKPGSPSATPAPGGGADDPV

cells [11] = type: functional, cell-based
cells [12] = type: functional, cell-based; remark: listed apart in the source
[13] = viability of PTEN-deleted HCT116 cells – cell-based, HCT116 PTEN knockout, dose response (AID 1047); type: functional;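 note: HCT116 colon tumor cells with PTEN knocked out; cells exposed to compound for 60 hours before readout; potency for loss of cell viability measured by luminescence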
[14] = viability of HCT116 lacking mutant beta-catenin – cell-based, human colon tumor, dose response (AID 1045); type: functional;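 note: HCT116 colon tumor cells with beta catenin knocked out; cells exposed to compound for 60 hours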
Cytochrome P450 3A4 [15] = target: T2, Cytochrome P450 3A4; details: Potency
[16] = A549 cell cytotoxicity, dose response, cytotoxicity control, plate reader, cherry-pick, antagonist series (AID 743412); type: functional, cell-based
[17] = toxicity toward HepG2 liver cells – cell-based, plate reader, cherry-pick, antagonist series, cytotoxicity control, dose response (AID 743416); type: functional
[18] = non-specific 3'UTR reporter inhibition in Clone20-Shn3RL – cell-based, Renilla luciferase, cherry-picked, counter-screen for Shn3 inhibitor project, dose response (AID 624133); type: functional
[19] = target: T3, Ubiquitin-conjugating enzyme E2 N (Homo sapiens, UniProt P61088); type: functional;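 note: Dose-response confirmation in a TR-FRET assay detecting UBC13-driven polyubiquitin chain formation, inhibition measured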
T3 sequence (P61088 whole entry): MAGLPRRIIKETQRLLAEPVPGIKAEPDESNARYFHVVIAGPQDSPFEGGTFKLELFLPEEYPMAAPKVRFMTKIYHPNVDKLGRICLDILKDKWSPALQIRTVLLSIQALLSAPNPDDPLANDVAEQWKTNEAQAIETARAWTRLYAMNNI

[20] = reduction of Shn3 3'UTR-driven luciferase in osteoblasts – cell-based, Clone20 osteoblasts, firefly luciferase, cherry-picked, dose response (AID 624132); type: functional;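 note: firefly luciferase luminescence from reporter carrying the Shn3 3'UTR in osteoblasts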
[21] = Luminescence Cell-Based Dose Retest to Confirm Inhibitors of Cancer Stem Cells. [Related pubchem assays (depositor defined):AID2717, AID2721]; type: functional; details: Homo sapiens
[22] = loss of viability in HepG2 cells – cell-based, CellTiter-Glo, cherry-picked, cytotoxicity control for Shn3 inhibitor project, dose response (AID 624134); type: functional
Cytochrome P450 1A2 = target: T4, Cytochrome P450 1A2 (Homo sapiens, UniProt P05177);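 note: PubChem cytochrome P450 panel assay, CYP1A2 panel member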
T4 sequence (P05177 whole entry): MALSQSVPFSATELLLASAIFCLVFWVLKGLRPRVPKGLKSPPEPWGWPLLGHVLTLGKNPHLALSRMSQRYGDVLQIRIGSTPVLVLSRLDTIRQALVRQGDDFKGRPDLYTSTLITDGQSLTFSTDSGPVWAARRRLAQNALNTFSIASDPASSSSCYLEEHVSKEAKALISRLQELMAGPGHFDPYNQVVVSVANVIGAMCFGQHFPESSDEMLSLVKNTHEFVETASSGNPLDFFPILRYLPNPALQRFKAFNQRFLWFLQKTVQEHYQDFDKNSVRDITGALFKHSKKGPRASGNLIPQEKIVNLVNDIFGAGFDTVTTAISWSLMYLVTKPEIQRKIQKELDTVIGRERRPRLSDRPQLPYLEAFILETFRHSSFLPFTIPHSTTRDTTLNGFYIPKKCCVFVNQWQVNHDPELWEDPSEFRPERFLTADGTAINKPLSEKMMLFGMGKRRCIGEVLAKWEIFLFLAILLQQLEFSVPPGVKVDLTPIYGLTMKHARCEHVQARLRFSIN

H9c2 = experiment: cells; type: functional, cell-based; details: Rattus norvegicus, H9c2, Myocardium;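 note: confirmatory concentration-response retest of ultra-high-throughput screening hits for modulation of myocardial damage; cell death induced by hydrogen peroxide oxidative stress; compound pretreatment for 60 min then peroxide exposure for 2 h; potency is for protecting the cells against peroxide damage rather than for killing them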
[23] = OVCAR8 cell viability loss – plate reader, dry powder samples, PAX8 project, dose response (AID 743197); type: functional, cell-based; details: OVCAR-8
Paired box protein Pax-8 = Paired box protein Pax-8 (Homo sapiens, UniProt Q06710); experiment: PAX8 transcriptional activity inhibition in RMG-I – RMG-I cells, luciferase, cherry-pick, dose response (AID 687027); type: functional, cell-based;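 note: luciferase reporter driven by Pax8 target thyroperoxidase promoter measured by SteadyGlo luminescence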
Sequence of Paired box protein Pax-8 (Q06710 whole entry): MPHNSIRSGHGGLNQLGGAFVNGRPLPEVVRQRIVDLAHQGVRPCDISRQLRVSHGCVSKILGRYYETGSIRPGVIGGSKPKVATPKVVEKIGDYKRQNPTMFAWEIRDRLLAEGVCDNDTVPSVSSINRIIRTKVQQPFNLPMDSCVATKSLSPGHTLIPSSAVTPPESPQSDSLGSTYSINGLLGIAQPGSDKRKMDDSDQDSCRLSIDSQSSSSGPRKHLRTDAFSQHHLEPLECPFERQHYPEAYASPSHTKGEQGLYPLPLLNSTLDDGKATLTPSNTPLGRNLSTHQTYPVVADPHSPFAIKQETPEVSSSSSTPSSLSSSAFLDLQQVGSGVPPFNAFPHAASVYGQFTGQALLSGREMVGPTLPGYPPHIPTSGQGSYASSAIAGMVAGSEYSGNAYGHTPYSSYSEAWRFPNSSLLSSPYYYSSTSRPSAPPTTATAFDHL

[24] = OVCAR-3 cell viability loss – plate reader, dry powder samples, PAX8 inhibitor project, dose response (AID 743044); type: functional, cell-based
[25] = P. falciparum Dd2 growth inhibitors, dose response, SYBR Green, cherry-picked samples (AID 1159567); type: functional, cell-based

Clc1ccc(-n2ncc3c(N4CCCC4)ncnc32)cc1
AC50 (HEK293): 1.32 µM (active)
AC50 [1]: 2.04 µM (active)
AC50 [2]: 2.7 µM (active)

Cc1nn(-c2nc3ccccc3[nH]2)c(N)c1-c1ccc(Cl)cc1
EC50 (Streptokinase A): > 150 µM (not active)
CC50 [3]: 16.2 µM (active)
AC50 (Cytochrome P450 2D6): 12.6 µM (inconclusive)
IC50 (cells [4]): 1.23 µM (active)
EC50 [5]: 2.42 µM (active)
CC50 [6]: 31.1 µM (active)
CC50 [7]: 25.8 µM (active)
AC50 (Cytochrome P450 3A4 [8]): 25.1 µM (inconclusive)
EC50 (Streptococcus): 8.49 µM (active)
CC50 [9]: 17.2 µM (active)

COc1ccc(S(=O)(=O)N(Cc2ccccc2)Cc2nc(-c3ccccc3)no2)cc1
EC50 [10]: 6.27 µM (active)

O=C(NCCSc1c[nH]c2ccccc12)c1ccc(Br)o1
EC50 (cells [11]): > 350 µM (not active)
EC50 (cells [12]): > 350 µM (not active)

COc1ccc(/C(O)=C/c2nc3ccc(C(=O)NCCc4cccc(C)c4)cc3nc2O)cc1OC
EC50 [13]: 6.66 µM (active)
EC50 [14]: 5.65 µM (active)

O=C1CN(c2ccccc2)C(=O)N1
EC50 (cells [11]): > 350 µM (not active)
EC50 (cells [12]): > 350 µM (not active)

C/C=C/OC(=O)NC(c1cccc(C)c1)[C@@]1(C(=O)OCC)CCCC1=O (stereo partly drawn)
AC50 (Cytochrome P450 3A4 [15]): 1.26 µM (inconclusive)

COc1ccc(CCNC(=O)c2cc(-c3cccs3)on2)cc1OC
EC50 (cells [11]): > 350 µM (not active)
EC50 (cells [12]): > 350 µM (not active)

Cc1ccc(-n2nnc(-c3nccn3C)n2)cc1
AC50 [16]: > 52 µM (inactive)
AC50 [1]: 5.3 µM (active)
AC50 [17]: > 52 µM (inactive)
AC50 [2]: 6.81 µM (active)

CCCn1c(-c2ccc(F)cc2)nc2c(NCCN3CCCCC3)nc(C)nc21
AC50 (Cytochrome P450 3A4 [15]): 15.8 µM (inconclusive)

O=C(NC(=S)NCCc1ccccc1)c1ccccc1
CC50 [3]: > 20 µM (active)

CC(C)(C)c1ccc(C(=O)NCCCN2CCN(CCCNC(=O)c3ccc(C(C)(C)C)cc3)CC2)cc1
EC50 [13]: 27.9 µM (active)
AC50 [18]: 1.62 µM (active)
EC50 [14]: 5.18 µM (active)
IC50 [19]: > 20 µM (inactive)
AC50 [20]: 4.84 µM (active)
AC50 [21]: 6.71 µM (active)
AC50 [22]: 15.2 µM (active)

COCCCn1c(N)c(C(=O)Nc2sc3c(c2C(=O)OC)CCCC3)c2nc3ccccc3nc21
EC50 [13]: 27.8 µM (active)
EC50 [14]: 33.9 µM (active)
AC50 (Cytochrome P450 1A2): 10 µM (inconclusive)
IC50 (H9c2): > 79 µM (inactive)

O=C(NCc1ccc(F)cc1)C1CCN(S(=O)(=O)N2CCOCC2)CC1
EC50 (cells [11]): > 350 µM (not active)
EC50 (cells [12]): > 350 µM (not active)

O=C(NC(=S)Nc1ccccn1)c1cccc([N+](=O)[O-])c1
EC50 (cells [11]): > 350 µM (not active)
EC50 (cells [12]): > 350 µM (not active)

O=C(CCc1ccccc1)N1CCN(c2ccc(Cl)cc2)CC1
EC50 [10]: 4.01 µM (active)

Nc1cc(=O)[nH]c(=O)n1Cc1ccccc1
AC50 (Cytochrome P450 3A4 [15]): 25.1 µM (inconclusive)

Cc1c(Cl)cccc1N/C(SCC(=O)N1CCCCCC1)=C(/C#N)c1nc2ccccc2s1
EC50 [13]: 4.06 µM (active)
EC50 [14]: 4.02 µM (active)

Cn1c(=O)c(C(=O)Nc2ccccn2)c(O)c2ccccc21
CC50 [3]: > 20 µM (active)
IC50 (cells [4]): 11.1 µM (active)
CC50 [7]: 19 µM (active)
CC50 [9]: 11.3 µM (active)

CCn1ncc(C2=NOC(C(=O)Nc3ccc4c(c3)OCO4)C2)c1C (stereo not drawn)
EC50 (cells [11]): > 350 µM (not active)
EC50 (cells [12]): > 350 µM (not active)

Cc1nn(Cc2ccccc2)c(Cl)c1C(=O)OCc1nnc(-c2ccccc2)o1
EC50 [10]: 30.4 µM (active)

CCCCCn1c(=O)c(C(=O)Nc2nc(CC(=O)OCC)cs2)c(O)c2ccccc21
CC50 [3]: > 20 µM (active)
IC50 (cells [4]): 2.79 µM (active)
CC50 [7]: 11.1 µM (active)
CC50 [9]: 11.8 µM (active)

O=[N+]([O-])c1ccc2[nH]cnc2c1
AC50 (Cytochrome P450 3A4 [15]): 25.1 µM (inconclusive)

COc1ccc(S(=O)(=O)Nc2ccc3c(c2)C(=O)N([C@H](C)CO)C[C@@H](C)[C@H](CN(C)S(=O)(=O)c2ccc(F)cc2)OCCCC[C@H](C)O3)cc1
AC50 [23]: > 70 µM (inactive)
AC50 (Paired box protein Pax-8): 4.65 µM (active)

C[C@@H]1CN([C@@H](C)CO)C(=O)c2cc(NS(=O)(=O)c3cccs3)ccc2O[C@@H](C)CCCCO[C@H]1CN(C)Cc1ccc(C(F)(F)F)cc1
AC50 (Paired box protein Pax-8): 25.2 µM (active)
AC50 [24]: 44 µM (active)

O=c1c(O)c(-c2ccccc2)oc2cccc(O)c12
AC50 (Cytochrome P450 3A4 [15]): 12.6 µM (inconclusive)

Nc1ccn([C@@H]2O[C@H](CO)[C@@H](OP(=O)(O)O)[C@H]2O)c(=O)n1
AC50 (Cytochrome P450 3A4 [15]): 7.94 µM (inconclusive)

O=C(N/N=C/c1cccs1)c1cccc(NC(=O)c2ccc(Cl)cc2)c1
EC50 [13]: 61.1 µM (active)
EC50 [14]: 55.4 µM (active)

CCc1nc(N2[C@H](C#N)[C@H](c3ccccc3-c3ccccc3F)[C@H]2CO)sc1C
AC50 [25]: 7.33 µM (active)

O=C(Cc1cccnc1)N1CC[C@H]2[C@H](CO)Nc3ccc(C#Cc4cccc(F)c4)cc3[C@H]21
AC50 [25]: 6.12 µM (active)

COc1ccccc1-c1ccc2c(c1)[C@H]1[C@H](CCN1C(=O)C1CCCC1)[C@@H](CO)N2
AC50 [25]: 4.88 µM (active)

CC(C)(C)[S@@+]([O-])N1Cc2cc(C(=O)NCCN3CCCCC3)nc(-c3cccc(-c4cccc(C#N)c4)c3)c2[C@H]1CCO
AC50 [25]: 7.56 µM (active)

COc1ccc(-c2c(O)c3c(OC)c4c(cc3oc2=O)OC(C)(C)CC4)cc1 [DIHYDROROBUSTIC ACID]
AC50 (Cytochrome P450 3A4 [15]): 25.1 µM (inconclusive)

— ChEMBL document CHEMBL1201862, “PubChem BioAssay data set” (2004)
